Assay results: PubChem BioAssay AID1963965 (Molecular Pharmacology Branch, DTP, NCI, 2024)

Test system: 996289-038-R-J1-PDC spheroid viability
Assay: Anticancer human tumor 996289-038-R-J1-PDC patient-derived colon adenocarcinoma cell line growth inhibition [PI3K]
Conditions: spheroids with HUVEC and MSC; for IC50: curve of first compound; for viability, T/C: stronger effect = lower value; active means viability on the fitted dose curve at most 10% of control; inactive means the rest
Summary of the method: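 Combination activity was assessed by viability in multicellular tumor spheroids carrying HUVEC and MSC components. Agents were tested with PI3K inhibitors from a Cmax-based top dose (or 10 microM) downward in half-log increments.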

[1] = second compound 0.00316 µM, first compound 0.0316 µM
[2] = second compound 0.00316 µM, first compound 0.1 µM
[3] = second compound 0.00316 µM, first compound 0.316 µM
[4] = second compound 0.00316 µM, first compound 1 µM
[5] = second compound 0.00316 µM, first compound 3.16 µM
[6] = second compound 0.00316 µM, first compound 10 µM
[7] = second compound 0.01 µM, first compound 0.0316 µM
[8] = second compound 0.01 µM, first compound 0.1 µM
[9] = second compound 0.01 µM, first compound 0.316 µM
[10] = second compound 0.01 µM, first compound 1 µM
[11] = second compound 0.01 µM, first compound 3.16 µM
[12] = second compound 0.01 µM, first compound 10 µM
[13] = second compound 0.0316 µM, first compound 0.0316 µM
[14] = second compound 0.0316 µM, first compound 0.1 µM
[15] = second compound 0.0316 µM, first compound 0.316 µM
[16] = second compound 0.0316 µM, first compound 1 µM
[17] = second compound 0.0316 µM, first compound 3.16 µM
[18] = second compound 0.0316 µM, first compound 10 µM
[19] = second compound 0.1 µM, first compound 0.0316 µM
[20] = second compound 0.1 µM, first compound 0.1 µM
[21] = second compound 0.1 µM, first compound 0.316 µM
[22] = second compound 0.1 µM, first compound 1 µM
[23] = second compound 0.1 µM, first compound 3.16 µM
[24] = second compound 0.1 µM, first compound 10 µM
[25] = second compound 0.316 µM, first compound 0.0316 µM
[26] = second compound 0.316 µM, first compound 0.1 µM
[27] = second compound 0.316 µM, first compound 0.316 µM
[28] = second compound 0.316 µM, first compound 1 µM
[29] = second compound 0.316 µM, first compound 3.16 µM
[30] = second compound 0.316 µM, first compound 10 µM
[31] = second compound 1 µM, first compound 0.0316 µM
[32] = second compound 1 µM, first compound 0.1 µM
[33] = second compound 1 µM, first compound 0.316 µM
[34] = second compound 1 µM, first compound 1 µM
[35] = second compound 1 µM, first compound 3.16 µM
[36] = second compound 1 µM, first compound 10 µM
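Further: spheroids exposed to compounds for seven days before viability read.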
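Wherever viability, T/C is given: luminescence used as a proxy for viable cell amount; percent viability relative to DMSO vehicle control as 100%.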

CNC(=O)c1ccc(N2C(=S)N(c3ccc(C#N)c(C(F)(F)F)c3)C(=O)C2(C)C)cc1F + CC(Nc1ccc2c(c1)OCCn1cc(N3C(=O)OCC3C(F)F)nc1-2)C(N)=O
inactive: viability, T/C [1] 82.9% | viability, T/C [2] 95.5% | viability, T/C [3] 103% | viability, T/C [4] 93.1% | viability, T/C [5] 89% | viability, T/C [6] 110% | viability, T/C [7] 100% | viability, T/C [8] 88.6% | viability, T/C [9] 100% | viability, T/C [10] 88.2% | viability, T/C [11] 98.2% | viability, T/C [12] 102% | viability, T/C [13] 98.3% | viability, T/C [14] 81.9% | viability, T/C [15] 80.1% | viability, T/C [16] 87.9% | viability, T/C [17] 92.1% | viability, T/C [18] 86.4% | viability, T/C [19] 79.4% | viability, T/C [20] 85.4% | viability, T/C [21] 80.5% | viability, T/C [22] 77.8% | viability, T/C [23] 92.9% | viability, T/C [24] 72% | viability, T/C [25] 65.1% | viability, T/C [26] 70.8% | viability, T/C [27] 73.3% | viability, T/C [28] 74.2% | viability, T/C [29] 70.3% | viability, T/C [30] 64% | viability, T/C [31] 55.5% | viability, T/C [32] 59.3% | viability, T/C [33] 60.4% | viability, T/C [34] 61.5% | viability, T/C [35] 51.9% | viability, T/C [36] 53.5%
> 10 µM: IC50 (second compound 0.00316 µM) | IC50 (second compound 0.01 µM) | IC50 (second compound 0.0316 µM) | IC50 (second compound 0.1 µM) | IC50 (second compound 0.316 µM) | IC50 (second compound 1 µM)

Cn1ncc(Cl)c1-c1cc(C(=O)NC(CN)Cc2cccc(F)c2)sc1Cl (centres undefined) + CC(Nc1ccc2c(c1)OCCn1cc(N3C(=O)OCC3C(F)F)nc1-2)C(N)=O
4.62 µM: IC50 (second compound 0.0316 µM)
7.33 µM: IC50 (second compound 0.01 µM)
> 10 µM: IC50 (second compound 0.00316 µM)
1.83 µM: IC50 (second compound 0.316 µM)
1.84 µM: IC50 (second compound 0.1 µM)
0.352 µM: IC50 (second compound 1 µM)
inactive: viability, T/C [1] 83.3% | viability, T/C [2] 82.9% | viability, T/C [3] 84.3% | viability, T/C [4] 80% | viability, T/C [5] 60% | viability, T/C [6] 54.5% | viability, T/C [7] 111% | viability, T/C [8] 97% | viability, T/C [9] 83.8% | viability, T/C [10] 73.7% | viability, T/C [11] 58.6% | viability, T/C [12] 46.5% | viability, T/C [13] 87.2% | viability, T/C [14] 84.2% | viability, T/C [15] 76.6% | viability, T/C [16] 64.8% | viability, T/C [17] 61.3% | viability, T/C [18] 35.5% | viability, T/C [19] 77.8% | viability, T/C [20] 80.2% | viability, T/C [21] 63.9% | viability, T/C [22] 56% | viability, T/C [23] 46% | viability, T/C [24] 33.6% | viability, T/C [25] 66.9% | viability, T/C [26] 59.6% | viability, T/C [27] 75.7% | viability, T/C [28] 55.3% | viability, T/C [29] 43.2% | viability, T/C [30] 28.9% | viability, T/C [31] 53.5% | viability, T/C [32] 52.6% | viability, T/C [33] 52.6% | viability, T/C [34] 43.9% | viability, T/C [35] 38.4% | viability, T/C [36] 25.8%
